We go through four compounds from US20070173438A1, “[PSI[CH2NH]PG4] glycopeptide antibiotic analogs” (The Scripps Research Institute, priority 2006, published 2007).

In brackets after ≈: the same amount, converted by molar mass. Several values for one entry are separate records, joined by “and”; a condition that tells them apart may be missing. Identical values can stand only once.

The subject of experiment [1] is N,N′-Ac2-Lys-D-Ala-D-Ala (2). Kind of experiment: UV difference titration binding constant with model ligand N,N′-Ac2-Lys-D-Ala-D-Ala. The settings on record: for Ka, affinity for D-Ala-D-Ala (Ac2-L-Lys-D-Ala-D-Ala, 2): association constant, 0.02 M sodium citrate buffer, Scatchard plot. The procedure:
(§1) Binding Constant Determination. The binding constants for compounds 5 and 41 for association with the model ligands N,N′-Ac2-Lys-D-Ala-D-Ala and N,N′-Ac2-Lys-D-Ala-D-Lac were determined according to literature (Nieto, M.; Perkins, H. R. Biochem. J. 1971, 124, 845; Nieto, M.; Perkins, H. R. Biochem. J. 1971, 124, 773; Nieto, M.; Perkins, H. R. Biochem. J. 1971, 124, 789) protocols. UV difference experiments were carried out on a CARY 3E UV-Vis spectrometer. UV scans were run with a baseline correction that consisted of 0.02 M sodium citrate buffer and covered a range from 200 to 345 nm. A solution of 5 or 41 (1.1×10^−4 M in 0.02 M sodium citrate buffer) was placed into a quartz UV cuvette (1.0 cm path length) and the UV spectrum recorded versus a reference cell containing 0.02 M sodium citrate buffer. UV spectra were recorded after each addition of a solution of N,N′-Ac2-Lys-D-Ala-D-Ala or N,N′-Ac2-Lys-D-Ala-D-Lac in 0.02 M sodium citrate buffer to each cell from 0.1 to 140.0 equivalents. The absorbance value at the λmax was recorded and the running change in absorbance, ΔAx equiv (Ainitial−Ax equiv, ) measured. The number of ligand equivalents was plotted versus ΔA to afford the ligand binding titration curve. The break point of this curve is the saturation point of the system and its xy coordinates determined by establishing the intersection of the linear fits of the pre and postsaturation curves. ΔAsaturation was calculated and employed to determine the concentration of free ligand in solution at each titration. ΔA was plotted versus ΔA/free ligand concentration to give a Scatchard plot from which the binding constants were determined.

Experiment [2] has as its system N,N′-Ac2-Lys-D-Ala-D-Lac (4). Kind of experiment: UV difference titration binding constant with model ligand N,N′-Ac2-Lys-D-Ala-D-Lac. The settings on record: for Ka, affinity for D-Ala-D-Lac (Ac2-L-Lys-D-Ala-D-Lac, 4): association constant, 0.02 M sodium citrate buffer, Scatchard plot. The procedure: as §1
For experiment [3], the system named is VanA Enterococcus faecalis (BM4166). The experiment is described as follows: antimicrobial assay against VanA resistant organism. The format is cell-based. As to conditions: for potency weaker than vancomycin and its aglycon against sensitive E. faecalis: MIC against VanA BM4166 compared with vancomycin/aglycon MIC against sensitive E. faecalis. An excerpt: (§2) It is the most difficult of the resistant organisms to treat (vs VanB) and characteristic of such organisms, they grow unchallenged enlisting a D-Ala-D-Ala peptidoglycan cell wall precursor, but switch to D-Ala-D-Lac upon glycopeptide treatment.

The subject of another experiment is sensitive E. faecalis. Kind of experiment: antimicrobial activity against sensitive E. faecalis. The format is cell-based. The settings on record: Enterococcus faecalis.
Source text: as §2

Experiment [4] concerns N,N′-Ac2-Lys-D-Ala-D-Lac (4). The settings on record: cited from earlier work.
Experiment [5] relates to 3 (methylene analogue of Ac2-L-Lys-D-Ala-D-Ala). The settings on record: cited from earlier work.
The test system of experiment [6] is enterococci resistant to vancomycin, VanA and VanB. The settings on record: literature; cited from earlier work.

For the compound `CN[C@H](CC(C)C)C(=O)N[C@H]1C(=O)N[C@@H](CC(N)=O)C(=O)N[C@H]2C(=O)N[C@H]3C(=O)N[C@H](C(=O)N[C@H](C(=O)O)c4cc(O)cc(O)c4-c4cc3ccc4O)[C@H](O)c3ccc(c(Cl)c3)Oc3cc2cc(c3O)Oc2ccc(cc2Cl)[C@H]1O` [vancomycin aglycon, reference compound], the “Ka, affinity for D-Ala-D-Ala (Ac2-L-Lys-D-Ala-D-Ala, 2)” value (from here on “Ka, affinity for D-Ala-D-Ala”) in experiment [1] was 170000 M⁻¹. For the same compound, in experiment [2], the “Ka, affinity for D-Ala-D-Lac (Ac2-L-Lys-D-Ala-D-Lac, 4)” value (shortened to “Ka, affinity for D-Ala-D-Lac”) was 120 M⁻¹. The same compound showed an MIC in experiment [3] (VanA E. faecalis BM4166) of 640 µg/mL (≈ 559 µM).
Take `CN[C@H](CC(C)C)C(=O)N[C@H]1C(=O)N[C@@H](CC(N)=O)C(=O)N[C@H]2CN[C@H]3C(=O)N[C@H](C(=O)N[C@H](C(=O)O)c4cc(O)cc(O)c4-c4cc3ccc4O)[C@H](O)c3ccc(c(Cl)c3)Oc3cc2cc(c3O)Oc2ccc(cc2Cl)[C@H]1O` [Compound 5, [ψ[CH2NH]Tpg^4]vancomycin aglycon]: in experiment [1] (5 versus carbamate 41), the “increase in binding affinity for D-Ala-D-Ala, 5 versus 41” value amounted to 3 fold. In experiment [1], the “Ka, affinity for D-Ala-D-Ala” value was determined as 4800 M⁻¹. For the same compound, the “reduction in affinity for D-Ala-D-Ala relative to the vancomycin aglycon” value in experiment [1] (relative to vancomycin aglycon) was 37 fold and 35 fold. Moreover, the “increase in binding affinity for D-Ala-D-Lac, 5 versus 41” value in experiment [2] (5 versus carbamate 41) is reported as 1.2 fold. The “Ka, affinity for D-Ala-D-Lac” value in experiment [2] is 5200 M⁻¹. Also, the “increase in affinity for D-Ala-D-Lac relative to the vancomycin aglycon” value in experiment [2] (relative to vancomycin aglycon) is 43 fold and 40 fold. Besides, the “potency weaker than vancomycin and its aglycon against sensitive E. faecalis” value in experiment [3] was “roughly 30 fold”. In addition, in experiment [3] (VanA E. faecalis BM4166), the MIC came to 31 µg/mL (≈ 27.4 µM) and the “potency relative to vancomycin or its aglycon (more potent)” value was “roughly 40 fold”.
As to `CN[C@H](CC(C)C)C(=O)N[C@H]1C(=O)N[C@@H](CC(N)=O)C(=O)N[C@H]2C(=O)N[C@H]3C(=O)N[C@H](C(=O)N[C@H](C(=O)O)c4cc(O)cc(O)c4-c4cc3ccc4O)[C@H](O)c3ccc(c(Cl)c3)Oc3cc2cc(c3O[C@@H]2O[C@H](CO)[C@@H](O)[C@H](O)[C@H]2O[C@H]2C[C@](C)(N)[C@H](O)[C@H](C)O2)Oc2ccc(cc2Cl)[C@H]1O` [vancomycin], the MIC is 2000 µg/mL (≈ 1380 µM) in experiment [3] (Enterococcus faecalis) and 1 to 2.5 µg/mL (≈ 0.69 to 1.73 µM) in the experiment on sensitive E. faecalis. In addition, the “reduction of binding to D-Ala-D-Lac ligand versus D-Ala-D-Ala” value in experiment [4] (literature) is reported as 1000 fold. Further, the “destabilizing lone pair/lone pair interaction with ester oxygen of 4” value in experiment [4] (share of lost binding energy) is 2.6 kcal/mol. Further, the “reduced binding affinity of 4” value in experiment [4] (versus 2, total loss) is reported as 4.1 kcal/mol. In addition, the “affinity for 3 less than that of 2” value in experiment [5] (relative to Ac2-L-Lys-D-Ala-D-Ala (2)) was “approximately 10 fold”. Besides, the “affinity for 3 greater than that of 4” value in experiment [5] (relative to Ac2-L-Lys-D-Ala-D-Lac (4)) was 100 fold. In experiment [6], the “drop in antimicrobial activity with D-Ala-D-Lac resistant bacteria” value is 1000 fold.
Regarding `CN[C@H](CC(C)C)C(=O)N[C@H]1C(=O)N[C@@H](CC#N)C(=O)N[C@H]2CN(C(=O)OC)[C@H]3C(=O)N[C@H](C(=O)N[C@H](COCOCCOC)c4cc(OC)cc(OC)c4-c4cc3ccc4OC)[C@H](O)c3ccc(c(Cl)c3)Oc3cc2cc(c3OC)Oc2ccc(cc2Cl)[C@H]1O` [Compound 41], the “Ka, affinity for D-Ala-D-Ala” value in experiment [1] was 1600 M⁻¹. Further, the “Ka, affinity for D-Ala-D-Lac” value in experiment [2] came to 4100 M⁻¹. In addition, in experiment [3], the “potency weaker than vancomycin and its aglycon against sensitive E. faecalis” value is “roughly 30 fold”. In experiment [3] (VanA E. faecalis BM4166), the MIC was determined as 31 µg/mL (≈ 23.8 µM) and the “potency relative to vancomycin or its aglycon (more potent)” value was “roughly 40 fold”.

Broadly, the MIC is the least concentration at which growth counts as inhibited.
